Measured values: ChEMBL document CHEMBL3137667, “[Drug-induced liver injury; fourteenth updated edition of the bibliographic database of liver injuries and related drugs]” (Gastroenterol Clin Biol, 2004)

Experiments:
[1] = human, serum
[2] = human
[3] = human; remark: listed apart in the source
[4] = Highest frequency of moderate liver toxicity observed during clinical trials, expressed as a percentage. [column '% BIOL' in source]; conditions: human
[5] = human; remark: listed apart in the source
[6] = Proposed mechanism(s) of liver damage. [column 'MEC' in source]; conditions: human
[7] = human, serum, 4383 h
[8] = human; remark: listed apart in the source
[9] = human; remark: listed apart in the source
[10] = human; remark: listed apart in the source
[11] = human; remark: listed apart in the source
[12] = human; remark: listed apart in the source
[13] = Presence of at least one case with successful reintroduction. [column 'REINT' in source]; conditions: human
[14] = Times to onset, minimal and maximal, observed in the indexed observations. [column 'DELAI' in source]; conditions: human
[15] = Comments (NB not yet translated). [column 'COMMENTAIRES' in source]; conditions: human
[16] = human; remark: listed apart in the source
[17] = human, serum; remark: listed apart in the source
[18] = Highest frequency of acute liver toxicity observed during clinical trials, expressed as a percentage. [column '% AIGUE' in source]; conditions: human
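For Hepatotoxicity (association with vascular disease) in this document: count of indexed literature references reporting vascular liver injury in humans, e.g. peliosis hepatitis, hepatic veno-occlusive disease or Budd-Chiari syndrome.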
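For Hepatotoxicity (benign tumour) in this document: value is a count of indexed literature references citing a benign tumour confirmed by histopathology.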
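For Hepatotoxicity (choleostasis) in this document: human cholestatic liver injury, shown by histopathology or by peak ALT or AST elevation over alkaline phosphatase ratio below 2, value counts indexed literature reports.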
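For Hepatotoxicity (chronic liver disease) in this document: chronic liver injury confirmed by histopathology or persistently raised serum aminotransferase activity beyond 6 months, value given as the count of indexed literature references.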
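For Hepatotoxicity (cirrhosis) in this document: value is a count of indexed literature references reporting cirrhosis confirmed by histopathology.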
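For Hepatotoxicity (cytolytic) in this document: human cytolytic liver injury, shown by histopathology or by a ratio above 5 of peak ALT or AST elevation to alkaline phosphatase elevation, value counts indexed references.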
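For Hepatotoxicity (granulomatous hepatitis) in this document: value is a count of indexed literature references reporting granulomatous liver disease confirmed by histopathology.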
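For Hepatotoxicity (malignant tumour) in this document: malignant tumour confirmed by histopathology, value gives the count of indexed literature references reporting it.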
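For Hepatotoxicity (severe hepatitis) in this document: human clinical data: severe hepatitis, meaning potentially life-threatening liver failure or clinically observed cases, the value counts how many indexed literature references report it.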
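For Hepatotoxicity (steatosis) in this document: steatosis confirmed by histopathology, value is the count of indexed references.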

Structure (SMILES) | Hepatotoxicity (moderate) [1] | Hepatotoxicity (cirrhosis) [5] | Hepatotoxicity (chronic liver disease) [7] | Hepatotoxicity (steatosis) [9] | Hepatotoxicity (association with vascular disease) [10] | Hepatotoxicity (benign tumour) [11] | Hepatotoxicity (successful reintroduction) [13] | Hepatotoxicity (time to onset) [14] | Hepatotoxicity (comment) [15] | Hepatotoxicity (malignant tumour) [16] | Hepatotoxicity (acute) [17] | Hepatotoxicity (choleostasis) [2] | Hepatotoxicity (severe hepatitis) [3] | Hepatotoxicity (moderate) [4] [%] | Hepatotoxicity (mechanism) [6] | Hepatotoxicity (cytolytic) [8] | Hepatotoxicity (granulomatous hepatitis) [12] | Hepatotoxicity (acute) [18] [%] | other results
O=C1NC(=O)C(c2ccccc2)(c2ccccc2)N1 [PHENYTOIN] | 29 | 0 | 6 | 4 | 0 | 0 | yes | 1 day - 11 years | #MNI CHOLESTASE_PROLONGEE DUCTOPENIE #CBP | 0 | 84 | – | – | – | – | – | – | – | Hepatotoxicity (choleostasis) ([2]; Liver): 30; Hepatotoxicity (severe hepatitis) ([3]; Liver): 14; Hepatotoxicity (moderate) ([4]; Liver): 90%; Hepatotoxicity (mechanism) ([6]; Liver): Allergic, Reactive metabolite; Hepatotoxicity (cytolytic) ([8]; Liver): 53; Hepatotoxicity (granulomatous hepatitis) ([12]; Liver): 5; Hepatotoxicity (acute) ([18]; Liver): 2%
CN1C(C(=O)Nc2ccccn2)=C(O)c2ccccc2S1(=O)=O [PIROXICAM] | 12 | 0 | 0 | 0 | 0 | 0 | yes | 3 days - 1 year | AC_ANTI-N CHOLESTASE_PROLONGEE | 0 | 19 | 10 | 5 | 73 | Allergic, Toxic | 13 | 1 | 0.8 | –
CCN(CC)CCNC(=O)c1ccc(N)cc1 [PROCAINAMIDE] | 1 | 0 | 0 | 0 | 0 | 0 | yes | 3 hours - 3 months | AC_ANTI-M3 | 0 | 4 | 4 | – | – | Allergic | 1 | 4 | – | Hepatotoxicity (severe hepatitis) ([3]; Liver): 0; Hepatotoxicity (moderate) ([4]; Liver): 0%; Hepatotoxicity (acute) ([18]; Liver): 0%
CCCNCC(O)COc1ccccc1C(=O)CCc1ccccc1 (configuration not stated) [PROPAFENONE] | 7 | 0 | 0 | 0 | 0 | 0 | yes | 6 days - 16 months | CHOLANGITE PRICHOLANGITE AC_ANTI-N | 0 | 9 | 6 | 0 | 10.6 | Allergic | 1 | 0 | 7.7 | –
CO[C@H]1/C=C/O[C@@]2(C)Oc3c(C)c(O)c4c(O)c(cc(O)c4c3C2=O)NC(=O)/C(C)=C\C=C\[C@H](C)[C@H](O)[C@@H](C)[C@@H](O)[C@@H](C)[C@H](OC(C)=O)[C@@H]1C [RIFAMYCIN] | 5 | 0 | 0 | 0 | 0 | 0 | yes | 6 hours - 13 days | CHOLANGITE I/ISONIAZIDE | 0 | 3 | 2 | 0 | 10 | Allergic | 2 | 0 | 2.3 | –
CC(C)c1nc(CN(C)C(=O)N[C@H](C(=O)N[C@@H](Cc2ccccc2)C[C@H](O)[C@H](Cc2ccccc2)NC(=O)OCc2cncs2)C(C)C)cs1 [RITONAVIR] | 10 | 0 | 0 | 1 | 0 | 0 | yes | < 1 day - 6 months | REACTIVATION_HVB/HVC | 0 | 14 | 2 | 1 | 44 | Dose-dependant | 11 | 0 | 32.1 | –
Cc1cn([C@H]2C=C[C@@H](CO)O2)c(=O)[nH]c1=O [STAVUDINE] | 13 | 0 | 0 | 25 | 0 | 0 | yes | 6 days - 5 years | REACTIVATION_HVB/HVC | 0 | 29 | 5 | 14 | 65.6 | Dose-dependant, Mitochondrial toxicity, Toxic | 22 | 0 | 17.1 | –
O=C(O)c1cc(/N=N/c2ccc(S(=O)(=O)Nc3ccccn3)cc2)ccc1O [SULFASALAZINE] | 44 | 0 | 2 | 1 | 0 | 0 | yes | 1 day - 1 year | DUCTOPENIE RC/COTRIMOXAZOLE/MESALAZINE/OLSALAZINE | 0 | 50 | 14 | 11 | 26.7 | Allergic | 31 | 11 | 5.7 | –
c1ccc2[nH]c(-c3cscn3)nc2c1 [THIABENDAZOLE] | 2 | 2 | 0 | 0 | 0 | 0 | yes | 2 weeks - 1.5 years | CHOLESTASE_PROLONGEE DUCTOPENIE #CBP | 0 | 13 | 13 | 0 | 36 | Allergic | 2 | 0 | 0 | –
